Data reported in patent publication US20050063956A1, “Method and device for attracting insects” (Colorado State University Research Foundation, priority 1998, published 2005).
“Also recorded” adds a separate entry of the source.

What was measured:
Reticulitermes tibialis = experiment: T-tube choice-test behavioral bioassay with CO2; format: in vivo
Experimental: Behavioral bioassay apparatus: The choice-test bioassay apparatus was constructed from a glass T-tube (5 mm inside diameter, 5 mm stem, with each branch 4.5 cm long). Each branch of the ‘T’ was bent downward (2.5 cm from the junction of the ‘T’) at a 45° angle to form a pitfall trap. A 5 mm NMR cap (cat. no. 100-0050, Drummond Scientific, Broomall, Pa.) with a 1 mm pinhole in it was firmly pushed over the end of each bent branch. A 25 cm length of Teflon tubing (0.8 mm inside diameter) was inserted 3 mm into the hole in each NMR cap and the other end of the tubing was connected to a 35 ml polyethylene syringe (cat. no. 106-0490, Sherwood Medical, St. Louis, Mo.). The two 35-ml syringes were connected to a syringe pump which was adjusted to provide an airflow of 1 ml per min into each choice arm of the bioassay apparatus.
Mixtures of CO2 and ambient air were tested to determine the termite response to a range of CO2 concentrations. […] The CO2 concentration of the syringes was determined by using GC-MS-SIM analysis (see below) before each bioassay. […]
Procedure: For bioassays, termite workers were collected from plastic tubs by using a camel's hair brush and were placed into a holding container constructed from a 3 cm length of Teflon tubing (8 mm inside diameter). […] Bioassays were conducted for 15 min, after which the number of termites in each pitfall was recorded. […]

[1] = tested on: western corn root worm larvae; experiment: Glass bead Y-tube choice test, corn volatiles versus CO2 (Example 19); parameters: species or system Diabrotica virgifera virgifera LeConte; conditions: in vivo
Experimental: Bioassay Procedure. All bioassays were choice tests conducted using a vertical glass “Y” tube apparatus filled with 3-mm glass beads (Bernklau and Bjostad 1998) (FIG. 62). Volatile compounds were prepared in 35-ml polyethylene syringes (cat no. 106-0490, Sherwood Medical, St. Louis, Mo.) and a syringe pump (Sage Model 355, Fisher Scientific, Pittsburgh, Pa.) was used to provide, slow (1 ml per min) consistent delivery of the compounds into each choice arm of the bioassay apparatus. Twenty newly-hatched larvae (less than 12-hours-old) were used for each bioassay. Non-diapausing larvae were used for all experiments unless otherwise indicated below. For each choice test a minimum of 10 replicates were conducted.
Corn Headspace Versus CO2. Using the glass bead bioassay (Bernklau and Bjostad 1998) the headspace over germinating corn seeds was tested in a choice test against a series of CO2 concentrations to determine if corn volatiles (including CO2) were more attractive to the larvae than CO2 alone. A 35-ml syringe was filled with the headspace over 3-day-old germinating corn seedlings by means of a 25-cm length of slender Teflon tubing inserted into a hole drilled into the cover of the tub containing the corn seedlings.
Three different concentrations of CO2 were tested on the control side of the choice test. In the 1 st test, we used ambient room air on the control side, which contains a lower concentration of CO2 than the corn headspace (approximately 1.0 mmol/mol). In the 2nd test, we used GC-MS-SIM to match the CO2 concentration in the syringe on the control side to be equal to that measured in the syringe containing corn headspace. In the 3rd test, the syringe on the control side of the choice test contained a CO2 concentration twice that measured in the corn headspace. To prepare each of these control concentrations, a 2nd 35-ml polyethylene syringe was partially filled (approximately 5 ml) from a tank containing pure (100%) CO2 using a glass syringe. Headspace from a plastic tub containing only moist germination paper was drawn into the syringe to fill it, mixing the air and CO2 thoroughly at the same time. The gas mixtures in the polyethylene syringes were allowed to equilibrate for 15 minutes, and GC-MS-SIM was used to verify the CO2 concentrations in both syringes prior to each bioassay.
Corn Headspace Versus CO2 with Diapausing Larvae. The larvae used in our studies were from a colony of nondiapausing western corn root worm that has been maintained in our laboratory since 1986. We wished to determine if diapausing western corn root worm larvae would respond differently to corn volatiles than the colony larvae. Using the same method described above, the headspace over germinating corn seeds was tested in a choice test against a series of CO2 concentrations with western corn root worm larvae from a diapausing strain.
Corn Headspace-Coated Glass Beads versus CO2. In the previous experiments, corn volatiles were introduced into the bottom of the Y-tube and carried through the glass beads by the airstream from the syringe pump. We also tested the possibility that some volatile compounds may have been removed from the airstream by coating out on the glass beads on the bottom of the Y-tube where they would not be available for the larvae to detect at the choice point near the middle of the Y-tube. […]

wireworm larvae = conditions: in vivo; cited from earlier work

O=C=O [CO2, carbon dioxide]
termite choice, CO2 side versus ambient air control side (Reticulitermes tibialis; 5 mmol/mol CO2 versus ambient air, 15 min): significantly greater than the number that moved to the control side; also recorded: chose the mmol/mol CO2 side significantly more often; also recorded: Significantly more termites (p<0.05) were attracted to the side containing 5 mmol/mol CO2 than to the control side | CO2 concentration of best attraction (Reticulitermes tibialis; in vivo): 5 mmol per mol | role in attraction of larvae to corn roots (conclusion) [1]: the only attractive volatile compound that attracts western corn root worm larvae to corn roots | smallest CO2 difference responded to (wireworm larvae): 0.02%
